# How the values were obtained:
# β1/β2-adrenoceptors = experiment: β1/β2-selectivity from mean pA2 values of right atria and trachea; set-up: species or system guinea-pig
# Protocol: The β1 /β2 -selectivity ratio was obtained from the antilogarithm of the difference between the mean pA2 values obtained from the right atria and trachea as described in J. Pharm. […] The pA2 values and slope values were calculated from individual Schild plots by regression analysis. The β1 /β2 -selectivity ratio was obtained from the antilogarithm of the difference between the mean pA2 values obtained from right atrium and trachea.
# [1] = system: right atria and left atrial strips; experiment: Intrinsic sympathomimetic activity in isolated right atria and left atrial strips; set-up: species or system reserpinized guinea-pigs; settings: for intrinsic sympathomimetic activity: effect on heart rate and contractility: cumulative concentrations, in words
# Protocol: Animals were pretreated with reserpine (10 mg/kg, i.p.) 24 hr prior to the experiment described in Naunyn-Schmiedeberg's Arch. […] All preparations including isolated right atria and left atria strips were studied.
# All measurements are expressed as mean percentages of the control frequency or force in the same preparation.
# [2] = biological target: T1, β1-adrenoceptor (right atrium) (Cavia porcellus, UniProt H0W3H1); experiment: β-adrenoceptor antagonism in isolated spontaneously-beating right atria (isoproterenol chronotropic response); set-up: species or system guinea-pig
# T1 construct: Spontaneously-beating right atria were removed from the hearts and mounted in a 10 ml organ bath; from tissue; host or cells: isolated guinea-pig (Hartley) right and left atria
# T1 sequence (H0W3H1 1-470): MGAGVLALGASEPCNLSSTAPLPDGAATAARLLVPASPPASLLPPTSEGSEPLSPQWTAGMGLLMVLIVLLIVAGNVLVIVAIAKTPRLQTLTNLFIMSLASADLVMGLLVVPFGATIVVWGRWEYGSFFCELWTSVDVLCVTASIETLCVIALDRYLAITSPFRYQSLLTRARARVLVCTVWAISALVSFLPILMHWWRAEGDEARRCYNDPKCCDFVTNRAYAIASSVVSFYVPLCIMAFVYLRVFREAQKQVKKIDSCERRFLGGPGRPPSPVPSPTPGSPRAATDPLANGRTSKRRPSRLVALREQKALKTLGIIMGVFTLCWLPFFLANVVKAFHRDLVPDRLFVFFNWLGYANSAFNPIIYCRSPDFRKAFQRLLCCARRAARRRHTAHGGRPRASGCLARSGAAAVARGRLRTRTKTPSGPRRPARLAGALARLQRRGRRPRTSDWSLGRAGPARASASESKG
# Protocol: Guinea-pigs (Hartley) of either sex weighing between 350 and 500 g were sacrificed by a blow on the head. Their hearts and trachea were quickly excised and excess tissue was removed. […] The atrial strip was prestretched to a baseline tension of 0.2 g. […] The atria were then allowed a 30-60 min washout period to estabilize, after which time various concentrations of the test compound were incubated with the atrium 30 min before the cumulative concentrations of the (-) isoproterenol ([…]) was added. All responses to (-) isoproterenol were calculated as a percentage of the maximum control response to (-) isoproterenol.
# (§1) The pA2 values and slope values were calculated from individual Schild plots by regression analysis. The β1 /β2 -selectivity ratio was obtained from the antilogarithm of the difference between the mean pA2 values obtained from right atrium and trachea.
# (§2) Mean cumulative concentration-response curves are shown for the positive chronotropic responses to (-) isoproterenol in spontaneously-beating guinea-pig right atria, positive inotropic responses to (-) isoproterenol in electrically driven guinea-pig left atria, and relaxant effects to (-) isoproterenol in guinea-pig spontaneous tone tracheal strips in the absence (.smallcircle.) or presence of 0.01 (.circle-solid.), 0.1, 1 (.tangle-soliddn.) or 10 (.diamond.) μM of vasomolol.
# [3] = biological target: T2, β2-adrenoceptor (trachea) (Cavia porcellus, UniProt Q8K4Z4); experiment: β-adrenoceptor antagonism in isolated tracheal strips (isoproterenol-induced relaxation); set-up: species or system guinea-pig
# T2 construct: Guinea-pig trachea were cleaned of extraneous connective tissue and cut into spiral strips; from tissue; host or cells: isolated guinea-pig tracheal spiral strips
# T2 sequence (Q8K4Z4 whole entry): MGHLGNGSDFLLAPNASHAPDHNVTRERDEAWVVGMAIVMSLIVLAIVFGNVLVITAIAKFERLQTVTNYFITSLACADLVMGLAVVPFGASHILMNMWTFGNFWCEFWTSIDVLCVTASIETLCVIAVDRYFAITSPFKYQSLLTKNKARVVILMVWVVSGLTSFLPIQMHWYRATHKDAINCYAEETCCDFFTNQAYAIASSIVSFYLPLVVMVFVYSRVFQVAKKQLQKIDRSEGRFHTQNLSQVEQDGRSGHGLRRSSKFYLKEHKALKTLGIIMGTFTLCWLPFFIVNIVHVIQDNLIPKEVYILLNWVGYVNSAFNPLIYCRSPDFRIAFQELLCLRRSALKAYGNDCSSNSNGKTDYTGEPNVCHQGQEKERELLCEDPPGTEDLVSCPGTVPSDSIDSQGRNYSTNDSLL
# Protocol: Guinea-pig trachea were cleaned of extraneous connective tissue and cut into spiral strips as described in Gen. […] This spiral strip was cut into two equal segments and both were suspended in organ baths filled with 20 ml of Kreb's solution. […] An initial basal tension of 2 g was applied to each tracheal strip and the tissue was allowed to gain tone spontaneously until a steady level was reached (60 min).
# as §1, §2
# β-adrenergic receptor = experiment: β-blockade and duration of action: inhibition of (-)isoproterenol-induced tachycardia during and after infusion; type: in vivo, pentobarbital-anesthetized rats
# Protocol: Vasomolol (100 μg/kg/min) was infused consecutively into a femoral vein in pentobarbital-anesthetized rats. Each perfusion was maintained for 60 min. Before and during the infusion of vasomolol and esmolol, at 10-min intervals, bolus i.v. injections of (-) isoproterenol (0.5. μg/kg) were administered to assess the level of β-blockade. (-) lsoproterenol injections were also continued for 60 min. after termination of the highest dose of vasomolol and esmolol to assess the duration of β-blockade reported in J. Pharm. Exp. Ther. 237, 912, 1986 (by Quon, C. Y. et al.). The percentage of inhibition of the (-)isoproterenol-induced tachycardia parameter of β-blockade--was calculated during and after infusions of vasomolol.
# isoproterenol (0.5 μg/kg)
# vasomolol (0.5, 1.0, 3.0 mg/kg)
# [4] = system: isolated rat thoracic aorta; experiment: Inhibition of phenylephrine and high K+ induced contractions of isolated rat aorta (vasodilatation effect)
# Protocol: Male rats weighing 200-250 g were sacrificed by a blow on the head and the thoracic aorta was removed and cleaned of all loosely adhering tissue. The thoracic aorta was cut from an area close to the aortic arch, immediately placed in a physiological solution, and trimmed to 2-4 mm in length as described in Gen. Pharmacol. 24, 1425, 1993 (by inventor group) The rings were then mounted with a tension of 1.0 g between parallel hooks in a 10 ml organ bath containing a physiological solution(mM):NaCl 112; KCl5.0; NaHCO3 25; KH2 PO4 1.0; CaCl2 1.25; MgSO4 1.2; and glucose 11.5]. The bath was maintained at 37° C. and aerated with a mixture of 95% O2 and 5% CO2. The tension of the aortic rings were recorded isometrically by means of a force displacement transducer (UGO, Model 7004, Italy) connected to an amplifier (COULBOURN, Model S72-25, U.S.A.). Before the start of the experiments, all preparations were allowed to equilibrate for 1.0 hr in the physiologic solution.
# Effects of vasomolol on (A) phenylephrine(10^-5 M) and (B) high K^+ (75 mM) induced contraction in rat thoracic aorta.
# [5] = biological target: T3, β1-adrenoceptor (left atrium) (Cavia porcellus, UniProt H0W3H1); experiment: β-adrenoceptor antagonism in isolated electrically driven left atria (isoproterenol inotropic response); set-up: species or system guinea-pig
# T3 construct: Spontaneously-beating right atria were removed from the hearts and mounted in a 10 ml organ bath; from tissue; host or cells: isolated guinea-pig (Hartley) right and left atria
# T3 sequence (H0W3H1 1-470): as the sequence (H0W3H1 1-470) above
# Protocol: In the isolated left atria, quiescent left atria were dissected free of connective tissue and mounted in organ chambers under a resting tension of 0.5 g. […] Cumulative concentration-response curves to the positive inotropic effects of (-) isoproterenol were obtained in the absence and presence of various concentrations of a test compound. An incubation time of 30 min was allowed for the test compound. Data were calculated as a percentage of the increase in force induced by (-) isoproterenol.
# as §1, §2
# [6] = system: phenylephrine-induced pressor response; experiment: Inhibition of phenylephrine-induced pressor response during intravenous infusion; type: in vivo, reserpinized rats; settings: infusion 300 μg/kg/min; phenylephrine 10 μg/kg i.v.; data not shown
# Protocol: The method reported in Gen. Pharmacol. 24, 1425, 1993 (by inventor group),
# phenylephrine (10 μg/klg, i.v.)
# [7] = mean ± SEM, six to eight experiments, 30 min
smiles,measurement,setting,value
CCOC(=O)c1ccc(OCC(O)CNC(C)(C)C)c(OC)c1 (stereo not drawn) [Vasomolol],β1/β2 selectivity in words,β1/β2-adrenoceptors,selective for β1-adrenoceptors
same,β1/β2-selectivity ratio,β1/β2-adrenoceptors; antilogarithm of difference between mean pA2 of right atrium and trachea,39.8
same,potency on right atria versus trachea,β1/β2-adrenoceptors; from mean pA2 values,39.8 times
same,intrinsic sympathomimetic activity: effect on heart rate and contractility,[1],did not induce an increase in the heart rate or contractility
same,intrinsic sympathomimetic activity: effect on heart rate and contractility,[1]; listed as vasomolol,Lack of intrinsic sympathomimetic activity
same,concentration causing negative inotropic and chronotropic effects,[1]; right atria rate and left atria tension,≥ 10^-5 M
same,antagonism of isoproterenol-induced positive chronotropic actions,"[2]; 5×10^-8 -10^-6 M, right atrial strips",caused a dose-dependent parallel shift to the right of the isoproterenol concentration-response curves
same,"pA2 value, β1, right atrium",[2]; [7],7.41 ± 0.05
same,"Schild slope, right atrium",[2]; regression of Schild plot,0.90 ± 0.04
same,relative β2-adrenoceptor blocking potency,[3]; in words,less potent than propranolol
same,"pA2 value, β2, trachea","[3]; mean ± SEM, six to eight experiments, 60 min",5.81 ± 0.11
same,antagonism of (-) isoproterenol-induced relaxation,"[3]; printed 5×10^8 -10^6 M, tracheal strips",competitively antagonized
same,"Schild slope, trachea",[3]; regression of Schild plot,0.81 ± 0.06
same,onset of β-blockade to steady-state level,"β-adrenergic receptor; after initiating each infusion rate, isoproterenol 0.5 μg/kg",≤ 10 min
same,time required for 50% recovery,"β-adrenergic receptor; after termination of infusion, mean±S.E.M.",9.5 ± 1.0 min
same,disappearance of β-blockade after termination of infusion,β-adrenergic receptor; in words,disappeared rapidly after the termination of infusion
same,inhibition of high K+ induced contraction,"[4]; K+ 75 mM, vasomolol printed 10^6 -10^5 M",significantly inhibited
same,"relaxation sensitivity, high K+ versus phenylephrine",[4]; in words,more sensitive in high K^+ than in phenylephrine-contracted aorta preparations
same,inhibition of phenylephrine-induced contraction,"[4]; phenylephrine printed 10^5 M, vasomolol printed 10^6 -10^5 M",significantly inhibited
same,antagonism of isoproterenol-induced positive inotropic responses,[5]; electrically driven left atrial strips,produced dose-dependent rightward shifts of the cumulative concentration-response curves to isoproterenol
same,relative β-adrenoceptor blocking potency,"[5]; guinea-pig atria, in words","more potent than atenolol, slightly more potent than metoprolol, and was less potent than propranolol"
same,"pA2 value, β1, left atrium",[5]; [7],7.44 ± 0.03
same,"Schild slope, left atrium",[5]; regression of Schild plot,0.89 ± 0.02
same,inhibition of phenylephrine-induced pressor response,[6],could not significantly inhibit
